Laboratory results reported in ChEMBL document CHEMBL5608223, “Chemical Probes to Investigate Central Nervous System Disorders: Design, Synthesis and Mechanism of Action of a Potent Human Serine Racemase Inhibitor” (ACS Med Chem Lett, 2024).
One block for each compound: values may come before it. The source made the active and inactive calls. The calls are words filed in the database; no cut-off is given here.

How the values were obtained:
[1] = target: T1, Serine racemase (Homo sapiens) (UniProt Q9GZT4); assay: Inhibition of recombinant hexa-His tagged human SR extracted from Escherichia coli BL21 CodonPlusR (DE3)-RIL cells at 2 mM preincubated with compound followed by L-serine addition and measured after 10 mins
T1 sequence (whole entry): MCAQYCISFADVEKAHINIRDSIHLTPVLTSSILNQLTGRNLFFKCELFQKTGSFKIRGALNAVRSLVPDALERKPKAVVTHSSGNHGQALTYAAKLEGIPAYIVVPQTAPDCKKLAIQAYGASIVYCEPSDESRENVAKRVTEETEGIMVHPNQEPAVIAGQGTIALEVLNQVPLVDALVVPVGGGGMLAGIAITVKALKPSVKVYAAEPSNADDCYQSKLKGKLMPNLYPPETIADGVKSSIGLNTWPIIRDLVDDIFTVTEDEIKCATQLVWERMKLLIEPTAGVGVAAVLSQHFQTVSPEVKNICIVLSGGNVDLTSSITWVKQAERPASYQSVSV

Serine racemase [2] = target: T2, Serine racemase (Homo sapiens, UniProt Q9GZT4); assay: Inhibition of human SR extracted from Escherichia coli assessed as beta-eliminase activity using L-Ser as substrate by spectrophotometer assay
T2 sequence (Q9GZT4 whole entry): T1 sequence (whole entry)

Serine racemase [3] = target: T3, Serine racemase (Mus musculus, UniProt Q9QZX7); assay: Inhibition of mouse SR using L-Serine as substrate incubated for 2 hrs in presence of PLP by spectrophotometer assay
T3 sequence (Q9QZX7 whole entry): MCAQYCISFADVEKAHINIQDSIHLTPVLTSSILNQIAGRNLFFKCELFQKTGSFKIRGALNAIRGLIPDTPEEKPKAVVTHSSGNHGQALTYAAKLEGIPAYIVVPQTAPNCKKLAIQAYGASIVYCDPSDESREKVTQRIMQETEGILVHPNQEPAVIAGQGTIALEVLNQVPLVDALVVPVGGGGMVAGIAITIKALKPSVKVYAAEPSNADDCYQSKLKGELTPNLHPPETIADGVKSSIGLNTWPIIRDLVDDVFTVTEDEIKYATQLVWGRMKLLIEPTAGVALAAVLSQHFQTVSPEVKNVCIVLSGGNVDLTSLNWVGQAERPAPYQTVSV

[4] = target: T4, Phosphoserine aminotransferase (Homo sapiens, UniProt Q9Y617); assay: Inhibition of human PSAT extracted from Escherichia coli BL21(DE3) cells preincubated with compound followed by L-OPS addition in presence of PLP
T4 sequence (Q9Y617 whole entry): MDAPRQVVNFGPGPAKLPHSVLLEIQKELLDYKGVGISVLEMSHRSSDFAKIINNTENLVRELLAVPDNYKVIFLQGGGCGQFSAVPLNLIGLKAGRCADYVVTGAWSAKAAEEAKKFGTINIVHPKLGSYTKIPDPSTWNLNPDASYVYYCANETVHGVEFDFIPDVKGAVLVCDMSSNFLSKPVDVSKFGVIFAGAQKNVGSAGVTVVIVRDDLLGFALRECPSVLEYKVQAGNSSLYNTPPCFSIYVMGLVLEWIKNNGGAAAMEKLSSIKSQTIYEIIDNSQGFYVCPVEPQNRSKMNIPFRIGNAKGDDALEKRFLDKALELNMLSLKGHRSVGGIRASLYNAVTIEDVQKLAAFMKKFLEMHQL

Activity [1]: inactive
Compound: N[C@@H](Cc1ccccc1)C(=O)O

IC50 (Serine racemase [2]): 3000 µM
Compound: O=C(O)[C@H]1C[C@H]1C(=O)O

IC50 (Serine racemase [3]): 2270 µM
Compound: N[C@H]1CONC1=O [LEVCYCLOSERINE]

IC50 [4]: 2.2 µM
Compound: NOC(Cc1ccc(-c2ccccc2)cc1)C(=O)O (stereo not given)

IC50 (Serine racemase [2]): 71 µM
Compound: O=C(O)CC(=O)O [MALONIC ACID]
